From patent US20210045385A1, “PYRIDAZINONE-SUBSTITUTED KETOXIMES AS HERBICIDES” (FMC Corporation, priority 2018, published 2021)

Columns and labels:
Type in all cases: in vivo
[1] = system: duck salad (Heteranthera limosa); experiment: Test D flooded paddy test, visual plant response rating; conditions: 250 g ai/ha, scale 0 to 100 (0 no effect, 100 complete control), 13 to 15 d
Method in brief: (§1)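 Rating is visual, on a 0 (no effect) to 100 (complete control) scale versus controls, taken 13 to 15 d after treatment in a greenhouse. Treatment went into paddy water kept 3 cm above the soil surface, with plants at the 2-leaf stage.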

rice (Oryza sativa) = experiment: as above; conditions: 250 g ai/ha, scale 0 to 100 (0 no effect, 100 complete control), 13 to 15 d
Method in brief: as §1

[2] = system: sedge umbrella (small-flower umbrella sedge, Cyperus difformis); experiment: as above; conditions: 250 g ai/ha, scale 0 to 100 (0 no effect, 100 complete control), 13 to 15 d
Method in brief: as §1

[3] = system: barnyardgrass (Echinochloa crus-galli); experiment: as above; conditions: 250 g ai/ha, scale 0 to 100 (0 no effect, 100 complete control), 13 to 15 d
Method in brief: as §1

[4] = system: foxtail, giant (giant foxtail, Setaria faberi); experiment: Test C preemergence, visual plant response rating; conditions: Test C, 0 is no effect, 100 is complete control
Method in brief: (§2)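 Visual injury on a 0 (no effect) to 100 (complete control) scale versus untreated controls, scored approximately 10 d after treatment under greenhouse conditions. Treatments used surfactant-containing non-phytotoxic solvent formulations, sprayed onto loam–sand soil preemergence or onto one- to two-leaf plants 2–10 cm tall postemergence.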

[5] = system: Italian ryegrass (Lolium mutiflorum); experiment: Test C preemergence, visual plant response rating; conditions: Test C, 0 is no effect, 100 is complete control
Method in brief: as §2

[6] = system: ragweed (common ragweed, Ambrosia artemisiifolia); experiment: Test C preemergence, visual plant response rating; conditions: Test C, 0 is no effect, 100 is complete control
Method in brief: as §2

[7] = system: barnyardgrass (Echinochloa crus-galli); experiment: Test C preemergence, visual plant response rating; conditions: Test C, 0 is no effect, 100 is complete control
Method in brief: as §2

kochia (Bassia scoparia) [8] = experiment: Test C preemergence, visual plant response rating; conditions: Test C, 0 is no effect, 100 is complete control
Method in brief: as §2

[9] = system: pigweed (Amaranthus retroflexus); experiment: Test C preemergence, visual plant response rating; conditions: Test C, 0 is no effect, 100 is complete control
Method in brief: as §2

[10] = system: wheat (Triticum aestivum); experiment: Test C postemergence, visual plant response rating
Method in brief: as §2

[11] = system: foxtail, giant (giant foxtail, Setaria faberi); experiment: Test C postemergence, visual plant response rating
Method in brief: as §2

[12] = system: Italian ryegrass (Lolium mutiflorum); experiment: Test C postemergence, visual plant response rating
Method in brief: as §2

[13] = system: ragweed (common ragweed, Ambrosia artemisiifolia); experiment: Test C postemergence, visual plant response rating
Method in brief: as §2

[14] = system: barnyardgrass (Echinochloa crus-galli); experiment: Test C postemergence, visual plant response rating
Method in brief: as §2

[15] = system: galium (catchweed bedstraw, Galium aparine); experiment: Test C postemergence, visual plant response rating
Method in brief: as §2

[16] = system: blackgrass (Alopecurus myosuroides); experiment: Test C postemergence, visual plant response rating
Method in brief: as §2

kochia (Bassia scoparia) [17] = experiment: Test C postemergence, visual plant response rating
Method in brief: as §2

corn (Zea mays) = experiment: Test C postemergence, visual plant response rating
Method in brief: as §2

[18] = system: pigweed (Amaranthus retroflexus); experiment: Test C postemergence, visual plant response rating
Method in brief: as §2

[19] = Test C, postemergence, 125 g ai/ha

SMILES	Plant response rating, Ducksalad (Flood) [1]	Plant response rating, Rice (Flood) (rice (Oryza sativa))	Plant response rating, Sedge, Umbrella (Flood) [2]	Plant response rating, Barnyardgrass (Flood) [3]	Foxtail, Giant plant response rating (0 to 100 scale) ([4]; 31 g ai/ha)	Foxtail, Giant plant response rating (0 to 100 scale) ([4]; 125 g ai/ha)	Ryegrass, Italian plant response rating (0 to 100 scale) ([5]; 31 g ai/ha)	Ryegrass, Italian plant response rating (0 to 100 scale) ([5]; 125 g ai/ha)	Ragweed plant response rating (0 to 100 scale) ([6]; 31 g ai/ha)	Ragweed plant response rating (0 to 100 scale) ([6]; 125 g ai/ha)	Barnyardgrass plant response rating (0 to 100 scale) ([7]; 31 g ai/ha)	Barnyardgrass plant response rating (0 to 100 scale) ([7]; 125 g ai/ha)	Kochia plant response rating (0 to 100 scale) (kochia (Bassia scoparia) [8]; 31 g ai/ha)	Kochia plant response rating (0 to 100 scale) (kochia (Bassia scoparia) [8]; 125 g ai/ha)	Pigweed plant response rating (0 to 100 scale) ([9]; 31 g ai/ha)	Pigweed plant response rating (0 to 100 scale) ([9]; 125 g ai/ha)	Wheat plant response rating (0 to 100 scale) ([10]; Postemergence, 31 g ai/ha)	Wheat plant response rating (0 to 100 scale) [10, 19]	Foxtail, Giant plant response rating (0 to 100 scale) ([11]; Postemergence, 31 g ai/ha)	Foxtail, Giant plant response rating (0 to 100 scale) [11, 19]	also measured
Cc1nn(C)c(=O)c(/C(=N/OCCO)c2cccc3cc(Cl)ccc23)c1O [Compound 240]	0	0	0	15	10	80	0	0	0	10	0	0	0	0	50	100	0	0	0	0	Ryegrass, Italian plant response rating (0 to 100 scale) ([12]; Postemergence, 31 g ai/ha): 0; Ryegrass, Italian plant response rating (0 to 100 scale) [12, 19]: 0; Ragweed plant response rating (0 to 100 scale) ([13]; Postemergence, 31 g ai/ha): 0; Ragweed plant response rating (0 to 100 scale) [13, 19]: 0; Barnyardgrass plant response rating (0 to 100 scale) ([14]; Postemergence, 31 g ai/ha): 0; Barnyardgrass plant response rating (0 to 100 scale) [14, 19]: 20; Galium plant response rating (0 to 100 scale) ([15]; Postemergence, 31 g ai/ha): 20; Galium plant response rating (0 to 100 scale) [15, 19]: 50; Blackgrass plant response rating (0 to 100 scale) ([16]; Postemergence, 31 g ai/ha): 0; Blackgrass plant response rating (0 to 100 scale) [16, 19]: 10; Kochia plant response rating (0 to 100 scale) (kochia (Bassia scoparia) [17]; Postemergence, 31 g ai/ha): 0; Kochia plant response rating (0 to 100 scale) (kochia (Bassia scoparia) [17]; [19]): 0; Corn plant response rating (0 to 100 scale) (corn (Zea mays); Postemergence, 31 g ai/ha): 0; Corn plant response rating (0 to 100 scale) (corn (Zea mays); [19]): 0; Pigweed plant response rating (0 to 100 scale) ([18]; Postemergence, 31 g ai/ha): 70; Pigweed plant response rating (0 to 100 scale) [18, 19]: 80
Cc1nn(C)c(=O)c(/C(=N\OC(C)C)c2cccc3cc(Cl)ccc23)c1O [Compound 241]	85	85	95	90	80	90	0	0	40	10	10	60	0	0	90	100	0	0	70	80	Ryegrass, Italian plant response rating (0 to 100 scale) ([12]; Postemergence, 31 g ai/ha): 0; Ryegrass, Italian plant response rating (0 to 100 scale) [12, 19]: 0; Ragweed plant response rating (0 to 100 scale) ([13]; Postemergence, 31 g ai/ha): 80; Ragweed plant response rating (0 to 100 scale) [13, 19]: 100; Barnyardgrass plant response rating (0 to 100 scale) ([14]; Postemergence, 31 g ai/ha): 30; Barnyardgrass plant response rating (0 to 100 scale) [14, 19]: 60; Galium plant response rating (0 to 100 scale) ([15]; Postemergence, 31 g ai/ha): 90; Galium plant response rating (0 to 100 scale) [15, 19]: 100; Blackgrass plant response rating (0 to 100 scale) ([16]; Postemergence, 31 g ai/ha): 20; Blackgrass plant response rating (0 to 100 scale) [16, 19]: 40; Kochia plant response rating (0 to 100 scale) (kochia (Bassia scoparia) [17]; Postemergence, 31 g ai/ha): 0; Kochia plant response rating (0 to 100 scale) (kochia (Bassia scoparia) [17]; [19]): 20; Corn plant response rating (0 to 100 scale) (corn (Zea mays); Postemergence, 31 g ai/ha): 10; Corn plant response rating (0 to 100 scale) (corn (Zea mays); [19]): 0; Pigweed plant response rating (0 to 100 scale) ([18]; Postemergence, 31 g ai/ha): 80; Pigweed plant response rating (0 to 100 scale) [18, 19]: 90
C#CCO/N=C(/c1c(O)c(C)nn(C)c1=O)c1cccc2cc(Cl)ccc12 [Compound 242]	98	85	100	95	80	100	10	90	80	90	60	90	30	50	100	100	0	60	70	80	Ryegrass, Italian plant response rating (0 to 100 scale) ([12]; Postemergence, 31 g ai/ha): 40; Ryegrass, Italian plant response rating (0 to 100 scale) [12, 19]: 90; Ragweed plant response rating (0 to 100 scale) ([13]; Postemergence, 31 g ai/ha): 50; Ragweed plant response rating (0 to 100 scale) [13, 19]: 90; Barnyardgrass plant response rating (0 to 100 scale) ([14]; Postemergence, 31 g ai/ha): 80; Barnyardgrass plant response rating (0 to 100 scale) [14, 19]: 90; Galium plant response rating (0 to 100 scale) ([15]; Postemergence, 31 g ai/ha): 80; Galium plant response rating (0 to 100 scale) [15, 19]: 100; Blackgrass plant response rating (0 to 100 scale) ([16]; Postemergence, 31 g ai/ha): 80; Blackgrass plant response rating (0 to 100 scale) [16, 19]: 90; Kochia plant response rating (0 to 100 scale) (kochia (Bassia scoparia) [17]; Postemergence, 31 g ai/ha): 40; Kochia plant response rating (0 to 100 scale) (kochia (Bassia scoparia) [17]; [19]): 50; Corn plant response rating (0 to 100 scale) (corn (Zea mays); Postemergence, 31 g ai/ha): 0; Corn plant response rating (0 to 100 scale) (corn (Zea mays); [19]): 20; Pigweed plant response rating (0 to 100 scale) ([18]; Postemergence, 31 g ai/ha): 90; Pigweed plant response rating (0 to 100 scale) [18, 19]: 100
C=CCO/N=C(\c1c(O)c(C)nn(C)c1=O)c1cccc2cc(Cl)ccc12 [Compound 243]	80	45	100	40	80	100	0	20	30	80	20	80	0	0	70	100	0	0	70	80	Ryegrass, Italian plant response rating (0 to 100 scale) ([12]; Postemergence, 31 g ai/ha): 10; Ryegrass, Italian plant response rating (0 to 100 scale) [12, 19]: 40; Ragweed plant response rating (0 to 100 scale) ([13]; Postemergence, 31 g ai/ha): 60; Ragweed plant response rating (0 to 100 scale) [13, 19]: 90; Barnyardgrass plant response rating (0 to 100 scale) ([14]; Postemergence, 31 g ai/ha): 70; Barnyardgrass plant response rating (0 to 100 scale) [14, 19]: 80; Galium plant response rating (0 to 100 scale) ([15]; Postemergence, 31 g ai/ha): 80; Galium plant response rating (0 to 100 scale) [15, 19]: 90; Blackgrass plant response rating (0 to 100 scale) ([16]; Postemergence, 31 g ai/ha): 30; Blackgrass plant response rating (0 to 100 scale) [16, 19]: 50; Kochia plant response rating (0 to 100 scale) (kochia (Bassia scoparia) [17]; Postemergence, 31 g ai/ha): 20; Kochia plant response rating (0 to 100 scale) (kochia (Bassia scoparia) [17]; [19]): 20; Corn plant response rating (0 to 100 scale) (corn (Zea mays); Postemergence, 31 g ai/ha): 0; Corn plant response rating (0 to 100 scale) (corn (Zea mays); [19]): 30; Pigweed plant response rating (0 to 100 scale) ([18]; Postemergence, 31 g ai/ha): 80; Pigweed plant response rating (0 to 100 scale) [18, 19]: 90
